From US20130071328A1, “Propynoic Acid Carbamoyl Methyl-Amides and Pharmaceutical Compositions and Methods Based Thereon” (UNIVERSITY OF SOUTHERN CALIFORNIA, priority 2011, published 2013)

Key:
Assay type in all cases: cell-based
[1] = test system: HEY ovarian cancer cell line; test: Cytotoxicity assay, HEY; conditions: Homo sapiens; Table 4, ovarian cancer panel
Description: The human breast cancer cell line MDA-MB-435 and the colon cancer cell line HT29 were purchased from the American Type Cell Culture (Manassas, Va.). Colon cancer cell lines HCT116 p53^+/+ and HCT116 p53^−/− were kindly provided by Dr. Bert Vogelstein (Johns Hopkins Medical Institutions, Baltimore, Md.). The human ovarian carcinoma cell line (HEY), naturally resistant to cisplatin (CDDP), was kindly provided by Dr. Louis Dubeau (USC Norris Cancer Center). The bladder cancer cell lines were kindly provided by Dr. Richard Cote (USC Keck School of Medicine). Cells were maintained as monolayer cultures in the appropriate media: RPMI-1640 (HT29, HCT116 p53^+/+, HCT116 p53^−/−, and HEY cell lines) or DMEM (MDA-MB-435 and UMUC3 cell lines) supplemented with 10% fetal bovine serum (FBS) (HyClone, Road Logan, Utah) at 37° C. in a humidified atmosphere of 5% CO2. To remove the adherent cells from the flask for subculture and counting, cells were washed with PBS without calcium or magnesium, incubated with a small volume of 1×trypsin-EDTA solution (Sigma-Aldrich, St. Louis, Mo.) for 5 min, resuspended with fresh culture medium, and centrifuged at 1200 rpm for 5 min. All experiments were performed using cells in exponential growth phase. Cells were routinely checked for Mycoplasma contamination using PlasmaTest kit (InvivoGen, San Diego, Calif.).
(§1) Cytotoxicity was assessed by MTT assay as described previously. 43 In brief, cells were seeded in 96-well microtiter plates and allowed to attach overnight. Cells were subsequently treated with continuous exposure to corresponding drugs for 72 h. At the end of treatments, an MTT solution (at a final concentration of 0.5 mg/mL) was added to each well, and cells were incubated for 4 h at 37° C. After removal of the supernatant, DMSO was added, and the absorbance was read at 570 nm. All assays were done in triplicate. The IC50 was then determined for each drug from a plot of log(drug concentration) versus percentage of cells killed.

[2] = test system: doxorubicin-resistant NCI/ADR-RES ovarian cancer cell line; test: Cytotoxicity assay, NCI/ADR-RES; conditions: Homo sapiens, Table 4, ovarian cancer panel
Description: as §1

[3] = test system: OVCAR8 ovarian cancer cell line; test: In vitro cytotoxicity, OVCAR8; conditions: Homo sapiens, OVCAR-8; Table 4, ovarian cancer panel
Description: as §1

[4] = test system: OVCAR3 ovarian cancer cell line; test: In vitro cytotoxicity, OVCAR3; conditions: Homo sapiens, OVCAR-3; Table 4, ovarian cancer panel
Description: as §1

SMILES	IC50 [1]	IC50 [2]	IC50 [3]	IC50 [4]
C#CC(=O)N(c1ccc(-n2cnnn2)c(C)c1)C(C(=O)NC1CCCC1)c1ccc(F)cc1 (stereo not drawn) [Compound 21]	310 nM	520 nM	2200 nM	3100 nM
C#CC(=O)N(c1ccc(-n2cnnn2)c(C)c1)C(C(=O)NC1CCCC1)c1cccc(F)c1 (stereo not drawn) [Compound 23]	720 nM	2000 nM	1500 nM	250 nM
C#CC(=O)N(c1ccc(-n2cnnn2)c(C)c1)C(C(=O)NC1CCCC1)c1ccc(F)c(F)c1 (stereo not drawn) [Compound 22]	330 nM	320 nM	1500 nM	2500 nM
C#CC(=O)N(c1ccc(C(N)=O)cc1)C(C(=O)NC1CCCC1)c1ccccc1 (stereo not drawn) [Compound 34]		2500 nM	1200 nM	2500 nM
C#CC(=O)N(C)C(C(=O)NC1CCCC1)c1cccs1 (stereo not drawn) [Compound 25]		320 nM	2200 nM	530 nM
C#CC(=O)NCC(=O)N(c1ccc(OC)cc1OC)C(C(=O)NC1CCCC1)c1cccs1 (stereo not drawn) [Compound 36]		8500 nM	3100 nM	2300 nM
C#CC(=O)N(CC(=O)NCC(=O)OCC)c1ccc(-n2cnnn2)c(C)c1 [Compound 44]		6300 nM	> 10000 nM	> 10000 nM
C#CC(=O)NCCC(=O)N(c1ccc(OC)cc1OC)C(C(=O)NC1CCCC1)c1cccs1 (stereo not drawn) [Compound 37]		9000 nM	1500 nM	2300 nM
C#CC(=O)N(CC(=O)NC1CCCC1)c1ccc(-n2cnnn2)c(C)c1 [Compound 30]		1800 nM	10000 nM	3000 nM
C#CC(=O)N(c1ccc(-n2cnnn2)c(C)c1)C(C(=O)NC1CCCC1)c1cccnc1 (stereo not drawn) [Compound 31]		2500 nM	1500 nM	2500 nM
C#CC(=O)N(CC(=O)NCC(=O)OCC)c1ccc(OC)cc1OC [Compound 43]		140 nM	2200 nM	300 nM
